{"source": "patent US20240165081A1", "about": "“COMPOSITIONS AND METHODS FOR TREATMENT OF INSOMNIA” (priority 2022, published 2024)", "origin": "cited, not measured here", "biological_target": "adenosine A2A receptor (Homo sapiens, UniProt P29274)", "sequence (P29274 whole entry)": "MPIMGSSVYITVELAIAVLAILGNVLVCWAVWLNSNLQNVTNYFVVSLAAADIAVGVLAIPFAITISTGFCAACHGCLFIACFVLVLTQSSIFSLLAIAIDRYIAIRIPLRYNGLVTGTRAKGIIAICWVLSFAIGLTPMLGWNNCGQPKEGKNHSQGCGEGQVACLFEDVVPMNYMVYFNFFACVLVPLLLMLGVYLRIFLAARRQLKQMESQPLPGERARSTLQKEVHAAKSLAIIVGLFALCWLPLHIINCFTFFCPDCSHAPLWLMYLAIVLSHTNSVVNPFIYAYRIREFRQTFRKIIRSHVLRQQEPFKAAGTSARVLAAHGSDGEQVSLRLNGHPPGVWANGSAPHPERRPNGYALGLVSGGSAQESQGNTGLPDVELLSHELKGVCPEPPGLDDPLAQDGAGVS"}
{"smiles": "C=C(C)C1CC=C(C)CC1", "note": "[D-limonene, 4-isopropenyl-1-methylcyclohexene]", "values": [{"measurement": "binding to the adenosine A2A receptor", "result": "found to bind to the adenosine A2A receptor"}]}
